Assay results: PubChem BioAssay (NCI)
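Abbreviation: GI50, concentration required for 50% inhibition of growth. At the TGI there is no net growth.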

Assays:
Assay in all cases: NCI anticancer screen, dose series, 384-well format
786-0 renal = system: 786-0 renal
A498 renal = system: A498 renal
A549 NSCLC = system: A549 NSCLC
ACHN renal = system: ACHN renal
BT-549 breast = system: BT-549 breast
CAKI-1 renal = system: CAKI-1 renal
CCRF-CEM leukemia = system: CCRF-CEM leukemia
COLO 205 colon = system: COLO 205 colon
DU-145 prostate = system: DU-145 prostate
EKVX NSCLC = system: EKVX NSCLC
HCC-2998 colon = system: HCC-2998 colon
HCT-116 colon = system: HCT-116 colon
HCT-15 colon = system: HCT-15 colon
HOP-62 NSCLC = system: HOP-62 NSCLC
HOP-92 NSCLC = system: HOP-92 NSCLC
HS 578T breast = system: HS 578T breast
HT29 colon = system: HT29 colon
IGROV1 ovarian = system: IGROV1 ovarian
K-562 leukemia = system: K-562 leukemia
KM12 colon = system: KM12 colon
LOX IMVI melanoma = system: LOX IMVI melanoma
M14 melanoma = system: M14 melanoma
MALME-3M melanoma = system: MALME-3M melanoma
MCF7 breast = system: MCF7 breast
MDA-MB-231 breast = system: MDA-MB-231 breast
MDA-MB-435 melanoma = system: MDA-MB-435 melanoma
MDA-MB-468 breast = system: MDA-MB-468 breast
MOLT-4 leukemia = system: MOLT-4 leukemia
NCI-H226 lung = system: NCI-H226 lung
NCI-H23 lung = system: NCI-H23 lung
NCI-H322M lung = system: NCI-H322M lung
NCI-H460 NSCLC = system: NCI-H460 NSCLC
NCI-H522 lung = system: NCI-H522 lung
NCI/ADR-RES ovarian = system: NCI/ADR-RES ovarian
OVCAR-3 ovarian = system: OVCAR-3 ovarian
OVCAR-4 ovarian = system: OVCAR-4 ovarian
OVCAR-5 ovarian = system: OVCAR-5 ovarian
OVCAR-8 ovarian = system: OVCAR-8 ovarian
PC-3 prostate = system: PC-3 prostate
RPMI-8226 leukemia = system: RPMI-8226 leukemia
RXF 393 renal = system: RXF 393 renal
SF-268 CNS = system: SF-268 CNS
SF-295 CNS = system: SF-295 CNS
SF-539 CNS = system: SF-539 CNS
SK-MEL-2 melanoma = system: SK-MEL-2 melanoma
SK-MEL-28 melanoma = system: SK-MEL-28 melanoma
SK-MEL-5 melanoma = system: SK-MEL-5 melanoma
SK-OV-3 ovarian = system: SK-OV-3 ovarian
SN12C renal = system: SN12C renal
SNB-19 CNS = system: SNB-19 CNS
SNB-75 CNS = system: SNB-75 CNS
SW-620 colon = system: SW-620 colon
T-47D breast = system: T-47D breast
TK-10 renal = system: TK-10 renal
U251 glioblastoma = system: U251 glioblastoma
UACC-257 melanoma = system: UACC-257 melanoma
UACC-62 melanoma = system: UACC-62 melanoma
UO-31 renal = system: UO-31 renal

## Cc1cc(C(=O)N[C@@H](CCC(=O)O)C(=O)O)sc1CC[C@@H]1CNc2nc(N)[nH]c(=O)c2C1
786-0 renal
  GI50: < 0.01 µM
  TGI: < 0.01 µM
A498 renal
  GI50: < 0.01 µM
  TGI: 0.0149 µM
A549 NSCLC
  GI50: 0.0215 µM
  TGI: 0.046 µM
ACHN renal
  GI50: < 0.01 µM
  TGI: 0.0225 µM
BT-549 breast
  GI50: 0.0183 µM
  TGI: 0.035 µM
CAKI-1 renal
  GI50: < 0.01 µM
  TGI: < 0.01 µM
CCRF-CEM leukemia
  GI50: < 0.01 µM
  TGI: < 0.01 µM
COLO 205 colon
  GI50: 0.0254 µM
  TGI: 0.0561 µM
DU-145 prostate
  GI50: < 0.01 µM
  TGI: < 0.01 µM
EKVX NSCLC
  GI50: 0.0114 µM
  TGI: 0.0274 µM
HCC-2998 colon
  GI50: 0.0332 µM
  TGI: 1.03 µM
HCT-116 colon
  GI50: < 0.01 µM
  TGI: 0.024 µM
HCT-15 colon
  GI50: 0.025 µM
  TGI: 0.0578 µM
HOP-62 NSCLC
  GI50: 0.0179 µM
  TGI: 0.0378 µM
HOP-92 NSCLC
  GI50: < 0.01 µM
  TGI: < 0.01 µM
HS 578T breast
  GI50: 0.0158 µM
  TGI: 0.0382 µM
HT29 colon
  GI50: 0.0174 µM
  TGI: 0.0372 µM
IGROV1 ovarian
  GI50: 0.0199 µM
  TGI: 0.04 µM
K-562 leukemia
  GI50: < 0.01 µM
  TGI: < 0.01 µM
KM12 colon
  GI50: 0.0285 µM
  TGI: 0.0727 µM
LOX IMVI melanoma
  GI50: 0.02 µM
  TGI: 0.04 µM
M14 melanoma
  GI50: < 0.01 µM
  TGI: 0.0201 µM
MALME-3M melanoma
  GI50: 0.02 µM
  TGI: 0.0372 µM
MCF7 breast
  GI50: 0.0157 µM
  TGI: 0.037 µM
MDA-MB-231 breast
  GI50: 0.345 µM
  TGI: 1.2 µM
MDA-MB-435 melanoma
  GI50: 0.0185 µM
  TGI: 0.0364 µM
MDA-MB-468 breast
  GI50: 0.0194 µM
  TGI: 0.0416 µM
MOLT-4 leukemia
  GI50: < 0.01 µM
  TGI: < 0.01 µM
NCI-H226 lung
  GI50: 0.0172 µM
  TGI: 0.0394 µM
NCI-H23 lung
  GI50: 0.0392 µM
  TGI: 0.157 µM
NCI-H322M lung
  GI50: 0.0202 µM
  TGI: 0.0394 µM
NCI-H460 NSCLC
  GI50: < 0.01 µM
  TGI: 0.0827 µM
NCI-H522 lung
  GI50: 0.0127 µM
  TGI: 0.0285 µM
NCI/ADR-RES ovarian
  GI50: 0.0201 µM
  TGI: 0.0373 µM
OVCAR-3 ovarian
  GI50: 0.019 µM
  TGI: 0.0412 µM
OVCAR-4 ovarian
  GI50: 0.0206 µM
  TGI: 0.0435 µM
OVCAR-5 ovarian
  GI50: 0.0101 µM
  TGI: 0.0238 µM
OVCAR-8 ovarian
  GI50: 0.017 µM
  TGI: 0.0346 µM
PC-3 prostate
  GI50: < 0.01 µM
  TGI: < 0.01 µM
RPMI-8226 leukemia
  GI50: 0.0182 µM
  TGI: 0.0363 µM
RXF 393 renal
  GI50: < 0.01 µM
  TGI: 0.0162 µM
SF-268 CNS
  GI50: < 0.01 µM
  TGI: 0.0208 µM
SF-295 CNS
  GI50: 0.0194 µM
  TGI: 0.0368 µM
SF-539 CNS
  GI50: < 0.01 µM
  TGI: 0.021 µM
SK-MEL-2 melanoma
  GI50: < 0.01 µM
  TGI: 0.0147 µM
SK-MEL-28 melanoma
  GI50: 0.0184 µM
  TGI: 0.0359 µM
SK-MEL-5 melanoma
  GI50: 0.0305 µM
  TGI: 0.135 µM
SK-OV-3 ovarian
  GI50: < 0.01 µM
  TGI: 0.0245 µM
SN12C renal
  GI50: < 0.01 µM
  TGI: < 0.01 µM
SNB-19 CNS
  GI50: < 0.01 µM
  TGI: 0.0231 µM
SNB-75 CNS
  GI50: < 0.01 µM
  TGI: < 0.01 µM
SW-620 colon
  GI50: 0.0124 µM
  TGI: 0.0301 µM
T-47D breast
  GI50: 0.0217 µM
  TGI: 0.0601 µM
TK-10 renal
  GI50: < 0.01 µM
  TGI: < 0.01 µM
U251 glioblastoma
  GI50: < 0.01 µM
  TGI: < 0.01 µM
UACC-257 melanoma
  GI50: 0.0102 µM
  TGI: 0.0277 µM
UACC-62 melanoma
  GI50: 0.021 µM
  TGI: 0.0501 µM
UO-31 renal
  GI50: < 0.01 µM
  TGI: 0.0116 µM
